Ki data for 3 compounds are collected here from BindingDB's records for doi:10.1016/0166-4328(96)00087-3 (Smithkline Beecham Pharmaceuticals, 1996).

Several values for one entry are separate records, joined by “and”; a condition that tells them apart may be missing. Identical values can stand only once.

One assay addresses Histamine H1 receptor (Cavia porcellus, UniProt P31389).
Assay [1] deals with 5-hydroxytryptamine receptor 4 (Sus scrofa, UniProt Q29006).
For assay [2], the target named is 5-hydroxytryptamine receptor 1E (Homo sapiens, UniProt P28566).
Assay [3] concerns the target D(1A) dopamine receptor (Homo sapiens, UniProt P21728).
The target in assay [4] is Alpha-2C adrenergic receptor (Rattus norvegicus, UniProt P22086).
Sequence of Alpha-2C adrenergic receptor (P22086 whole entry): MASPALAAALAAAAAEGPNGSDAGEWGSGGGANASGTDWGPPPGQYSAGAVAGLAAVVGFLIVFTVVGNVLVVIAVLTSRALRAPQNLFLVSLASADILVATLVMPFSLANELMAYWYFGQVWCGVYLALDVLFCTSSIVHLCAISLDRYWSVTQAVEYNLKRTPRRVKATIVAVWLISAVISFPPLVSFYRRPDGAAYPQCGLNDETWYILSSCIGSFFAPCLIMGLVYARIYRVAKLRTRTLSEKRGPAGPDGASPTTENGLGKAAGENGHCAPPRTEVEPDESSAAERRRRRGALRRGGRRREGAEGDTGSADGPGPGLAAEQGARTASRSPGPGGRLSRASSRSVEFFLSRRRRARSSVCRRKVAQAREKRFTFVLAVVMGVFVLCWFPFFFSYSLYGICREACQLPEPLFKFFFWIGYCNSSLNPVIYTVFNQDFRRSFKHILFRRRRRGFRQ
For assay [5], the target named is D(2) dopamine receptor (Homo sapiens, UniProt P14416).
Sequence of D(2) dopamine receptor (Homo sapiens, UniProt P14416) (P14416 whole entry): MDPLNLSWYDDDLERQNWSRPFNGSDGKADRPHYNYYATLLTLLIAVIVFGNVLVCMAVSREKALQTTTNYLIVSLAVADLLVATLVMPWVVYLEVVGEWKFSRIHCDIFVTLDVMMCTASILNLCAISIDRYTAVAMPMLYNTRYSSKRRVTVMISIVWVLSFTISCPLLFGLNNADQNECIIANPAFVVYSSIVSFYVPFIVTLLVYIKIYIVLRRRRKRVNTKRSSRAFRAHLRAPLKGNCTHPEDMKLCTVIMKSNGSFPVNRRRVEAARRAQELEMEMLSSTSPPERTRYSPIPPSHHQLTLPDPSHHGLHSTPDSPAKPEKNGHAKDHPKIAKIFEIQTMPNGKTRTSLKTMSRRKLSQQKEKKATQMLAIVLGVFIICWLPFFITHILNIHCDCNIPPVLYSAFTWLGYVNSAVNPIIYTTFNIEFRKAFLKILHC
Assay [6] concerns the target 5-hydroxytryptamine receptor 2A (Rattus norvegicus, UniProt P14842).
Assay [7] has as its target 5-hydroxytryptamine receptor 2C (Sus scrofa, UniProt G7ZKZ7).
The target in assay [8] is 5-hydroxytryptamine receptor 2B (Rattus norvegicus, UniProt P30994).
Sequence of 5-hydroxytryptamine receptor 2B (P30994 whole entry): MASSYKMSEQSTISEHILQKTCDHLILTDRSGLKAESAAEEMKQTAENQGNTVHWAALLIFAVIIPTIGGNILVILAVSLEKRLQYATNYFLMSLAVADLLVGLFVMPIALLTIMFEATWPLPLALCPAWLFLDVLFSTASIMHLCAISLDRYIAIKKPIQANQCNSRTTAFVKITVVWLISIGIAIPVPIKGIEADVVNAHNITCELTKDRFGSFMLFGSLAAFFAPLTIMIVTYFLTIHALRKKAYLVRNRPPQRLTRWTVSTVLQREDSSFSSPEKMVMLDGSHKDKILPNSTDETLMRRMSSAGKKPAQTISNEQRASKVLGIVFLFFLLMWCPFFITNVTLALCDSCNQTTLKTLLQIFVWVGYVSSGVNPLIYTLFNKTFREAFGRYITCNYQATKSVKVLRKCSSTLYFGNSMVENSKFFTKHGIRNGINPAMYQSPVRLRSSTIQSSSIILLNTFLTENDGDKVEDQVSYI
Assay [9] concerns the target Gamma-aminobutyric acid receptor subunit alpha-1 (Rattus norvegicus, UniProt P62813).
Assay [10] concerns the target 5-hydroxytryptamine receptor 1B (Homo sapiens, UniProt P28222).
Assay [11] deals with Alpha-1A adrenergic receptor (Rattus norvegicus, UniProt P43140).
Sequence of Alpha-1A adrenergic receptor (Rattus norvegicus, UniProt P43140) (P43140 whole entry): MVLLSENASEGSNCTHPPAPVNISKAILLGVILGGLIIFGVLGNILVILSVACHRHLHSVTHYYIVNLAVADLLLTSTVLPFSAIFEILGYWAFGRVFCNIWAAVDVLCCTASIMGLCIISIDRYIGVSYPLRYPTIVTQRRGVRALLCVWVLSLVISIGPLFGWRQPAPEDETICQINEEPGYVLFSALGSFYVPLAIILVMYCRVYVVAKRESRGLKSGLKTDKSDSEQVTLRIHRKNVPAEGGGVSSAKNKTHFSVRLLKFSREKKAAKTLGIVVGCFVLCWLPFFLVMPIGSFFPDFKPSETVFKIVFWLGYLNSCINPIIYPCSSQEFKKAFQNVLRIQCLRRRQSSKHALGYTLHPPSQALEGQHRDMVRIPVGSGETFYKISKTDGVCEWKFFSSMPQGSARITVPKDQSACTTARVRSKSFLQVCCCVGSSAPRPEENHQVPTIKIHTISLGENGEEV
The target in assay [12] is 5-hydroxytryptamine receptor 1A (Rattus norvegicus, UniProt P19327).
Sequence of 5-hydroxytryptamine receptor 1A (P19327 whole entry): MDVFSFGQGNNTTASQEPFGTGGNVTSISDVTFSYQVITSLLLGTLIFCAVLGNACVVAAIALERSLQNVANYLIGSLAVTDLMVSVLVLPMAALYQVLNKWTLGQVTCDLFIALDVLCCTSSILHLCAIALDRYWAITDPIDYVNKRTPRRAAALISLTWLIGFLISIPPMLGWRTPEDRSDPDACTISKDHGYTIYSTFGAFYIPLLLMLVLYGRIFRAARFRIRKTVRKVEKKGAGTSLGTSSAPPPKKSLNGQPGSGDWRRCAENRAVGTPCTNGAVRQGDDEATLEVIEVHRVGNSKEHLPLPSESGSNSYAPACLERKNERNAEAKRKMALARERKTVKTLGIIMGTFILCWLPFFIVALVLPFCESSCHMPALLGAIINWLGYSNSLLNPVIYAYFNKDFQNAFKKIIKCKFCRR
The target in a further assay is Histamine H2 receptor (Oryctolagus cuniculus, UniProt G1TWL8).
For assay [13], the target named is Beta-1 adrenergic receptor (Cavia porcellus, UniProt B0FL73).
The target of assay [14] is Alpha-1A adrenergic receptor (Oryctolagus cuniculus, UniProt O02824).
For assay [15], the target named is Beta-2 adrenergic receptor (Sylvilagus floridanus, UniProt Q9BFY9).
The target of assay [16] is D(2) dopamine receptor (Rattus norvegicus, UniProt P61169).
In assay [17] the target is Muscarinic acetylcholine receptor M3 (Sus scrofa, UniProt P11483).
Assay [18] concerns the target 5-hydroxytryptamine 1D receptor (Bos taurus, UniProt Q8MI13).
The target of assay [19] is 5-hydroxytryptamine receptor 1B (Oryctolagus cuniculus, UniProt P49144).
Assay [20] addresses 5-hydroxytryptamine receptor 2A (Oryctolagus cuniculus, UniProt G1SYA7).
The target of assay [21] is 5-hydroxytryptamine receptor 1D (Homo sapiens, UniProt P28221).
In assay [22] the target is D(1A) dopamine receptor (Rattus norvegicus, UniProt P18901).
Sequence of D(1A) dopamine receptor (Rattus norvegicus, UniProt P18901) (P18901 whole entry): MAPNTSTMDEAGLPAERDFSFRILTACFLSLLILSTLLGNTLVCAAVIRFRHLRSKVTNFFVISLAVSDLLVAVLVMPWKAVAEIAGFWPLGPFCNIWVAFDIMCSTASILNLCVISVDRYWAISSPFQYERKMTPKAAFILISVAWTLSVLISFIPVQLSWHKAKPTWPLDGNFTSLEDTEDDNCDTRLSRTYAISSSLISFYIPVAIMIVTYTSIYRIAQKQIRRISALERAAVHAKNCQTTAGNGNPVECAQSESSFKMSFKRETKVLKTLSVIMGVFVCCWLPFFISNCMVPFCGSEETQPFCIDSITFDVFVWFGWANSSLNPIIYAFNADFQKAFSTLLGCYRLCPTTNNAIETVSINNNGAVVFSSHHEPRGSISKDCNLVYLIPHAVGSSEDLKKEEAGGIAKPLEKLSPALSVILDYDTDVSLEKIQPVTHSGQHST
In assay [23] the target is 5-hydroxytryptamine receptor 1D (Cavia porcellus, UniProt Q60484).
Assay [24] concerns the target Alpha-2A adrenergic receptor (Homo sapiens, UniProt P08913).
Assay [25] deals with 5-hydroxytryptamine receptor 2C (Rattus norvegicus, UniProt P08909).
The target in assay [26] is 5-hydroxytryptamine receptor 2C (Homo sapiens, UniProt P28335).
The target of assay [27] is Beta-1 adrenergic receptor (Rattus norvegicus, UniProt P18090).
Sequence of Beta-1 adrenergic receptor (Rattus norvegicus, UniProt P18090) (P18090 whole entry): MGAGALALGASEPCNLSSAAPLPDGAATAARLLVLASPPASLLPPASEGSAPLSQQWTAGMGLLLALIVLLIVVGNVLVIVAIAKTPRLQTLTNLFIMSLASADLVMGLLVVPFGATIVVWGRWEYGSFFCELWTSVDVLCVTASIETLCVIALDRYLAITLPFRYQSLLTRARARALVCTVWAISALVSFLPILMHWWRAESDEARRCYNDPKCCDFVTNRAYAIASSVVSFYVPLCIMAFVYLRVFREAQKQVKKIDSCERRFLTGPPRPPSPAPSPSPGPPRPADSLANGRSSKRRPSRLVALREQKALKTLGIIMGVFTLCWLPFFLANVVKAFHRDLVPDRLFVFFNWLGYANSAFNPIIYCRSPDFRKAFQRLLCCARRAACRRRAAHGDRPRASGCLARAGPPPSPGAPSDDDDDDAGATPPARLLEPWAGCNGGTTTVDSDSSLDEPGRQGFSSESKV
Assay [28] concerns the target Alpha-2B adrenergic receptor (Rattus norvegicus, UniProt P19328).
Assay [29] has as its target Beta-2 adrenergic receptor (Rattus norvegicus, UniProt P10608).
In assay [30] the target is 5-hydroxytryptamine receptor 3A (Rattus norvegicus, UniProt P35563).

Sequence of 5-hydroxytryptamine receptor 2A (Rattus norvegicus, UniProt P14842) (P14842 whole entry): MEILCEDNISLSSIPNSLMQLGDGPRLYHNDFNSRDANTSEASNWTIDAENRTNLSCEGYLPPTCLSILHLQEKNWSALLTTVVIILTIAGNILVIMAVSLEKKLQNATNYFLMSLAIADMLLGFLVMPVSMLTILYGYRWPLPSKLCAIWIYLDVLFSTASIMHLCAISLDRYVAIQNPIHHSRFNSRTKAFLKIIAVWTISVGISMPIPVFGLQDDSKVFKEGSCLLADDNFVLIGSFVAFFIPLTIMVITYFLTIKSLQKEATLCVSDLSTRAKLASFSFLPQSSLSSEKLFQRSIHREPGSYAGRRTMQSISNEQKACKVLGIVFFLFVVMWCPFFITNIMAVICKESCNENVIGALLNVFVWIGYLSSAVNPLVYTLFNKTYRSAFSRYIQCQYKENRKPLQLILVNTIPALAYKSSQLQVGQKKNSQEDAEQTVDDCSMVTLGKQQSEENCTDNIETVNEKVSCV
Sequence of Histamine H1 receptor (P31389 whole entry): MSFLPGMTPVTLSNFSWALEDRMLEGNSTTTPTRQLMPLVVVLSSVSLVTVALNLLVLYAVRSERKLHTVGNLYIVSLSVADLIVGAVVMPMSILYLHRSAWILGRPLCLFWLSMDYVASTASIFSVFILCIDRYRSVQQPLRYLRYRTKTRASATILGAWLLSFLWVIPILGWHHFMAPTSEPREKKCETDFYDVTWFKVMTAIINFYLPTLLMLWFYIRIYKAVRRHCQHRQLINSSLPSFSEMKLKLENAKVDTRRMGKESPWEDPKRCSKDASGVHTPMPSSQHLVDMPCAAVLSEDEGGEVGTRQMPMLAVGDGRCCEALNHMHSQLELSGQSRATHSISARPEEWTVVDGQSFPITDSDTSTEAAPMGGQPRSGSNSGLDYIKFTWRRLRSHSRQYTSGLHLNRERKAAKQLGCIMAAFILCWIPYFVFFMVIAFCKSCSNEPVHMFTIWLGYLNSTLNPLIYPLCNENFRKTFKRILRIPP
Sequence of 5-hydroxytryptamine receptor 4 (Q29006 whole entry): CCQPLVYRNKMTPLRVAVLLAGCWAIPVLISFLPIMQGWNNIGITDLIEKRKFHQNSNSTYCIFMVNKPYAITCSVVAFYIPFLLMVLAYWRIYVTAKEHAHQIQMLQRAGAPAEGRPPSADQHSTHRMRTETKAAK
Sequence of 5-hydroxytryptamine receptor 2A (Oryctolagus cuniculus, UniProt G1SYA7) (G1SYA7 whole entry): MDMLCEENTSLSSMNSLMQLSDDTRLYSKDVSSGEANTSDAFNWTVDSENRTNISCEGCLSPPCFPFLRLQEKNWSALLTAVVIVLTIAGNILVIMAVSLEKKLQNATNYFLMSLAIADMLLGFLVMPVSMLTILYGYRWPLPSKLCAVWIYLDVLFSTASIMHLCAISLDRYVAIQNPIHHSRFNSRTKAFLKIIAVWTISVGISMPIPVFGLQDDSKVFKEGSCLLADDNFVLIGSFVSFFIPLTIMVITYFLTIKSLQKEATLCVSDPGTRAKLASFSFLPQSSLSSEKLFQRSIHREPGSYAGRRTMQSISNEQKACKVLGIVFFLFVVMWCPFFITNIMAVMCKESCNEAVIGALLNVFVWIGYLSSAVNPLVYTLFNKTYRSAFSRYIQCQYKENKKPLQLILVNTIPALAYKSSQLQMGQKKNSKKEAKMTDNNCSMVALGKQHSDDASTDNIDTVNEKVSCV
Sequence of 5-hydroxytryptamine 1D receptor (Q8MI13 whole entry): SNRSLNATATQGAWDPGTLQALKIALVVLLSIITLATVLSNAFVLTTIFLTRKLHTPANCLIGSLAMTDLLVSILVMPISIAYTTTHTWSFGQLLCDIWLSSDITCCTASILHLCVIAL

By Ki is commonly meant a dissociation constant, usually derived from enzyme kinetics or from competition with a known ligand. A higher Ki goes with weaker binding. In the case of `Cc1cc(NC(=O)Nc2ccc3c(ccn3C)c2)sn1` [CAS_3277600], the inhibition constant (Ki) was over 10 µM on Histamine H1 receptor; over 10 µM in [1]; over 10 µM in assay [2]; over 10 µM on D(1A) dopamine receptor [3]; 1 µM in [4]; over 10 µM at D(2) dopamine receptor [5]. For the same compound, the Ki in assay [6] is 5.01 µM; in assay [7] it was 1 µM; in assay [8], 0.0159 µM and 0.0501 µM; in [9], over 10 µM; in assay [10], over 10 µM; in assay [11], 1 µM.
For `CC(N)Cc1c[nH]c2ccc(OCc3cccs3)cc12` (stereo not drawn) [NSC_5311036], the Ki in assay [12] is 1.26 µM; at Histamine H1 receptor, over 10 µM; on Histamine H2 receptor, over 10 µM; in [1], over 10 µM; in [13], over 10 µM; in assay [14], over 10 µM. For the same compound, the inhibition constant (Ki) is over 10 µM in assay [4]; over 10 µM in assay [15]; over 10 µM at D(2) dopamine receptor [16]; 3.98 µM in [6]; over 10 µM in assay [17]; 0.501 µM in assay [18]. Besides, the Ki is 0.0251 µM in assay [8]; over 10 µM in assay [19]; over 10 µM in assay [20]; 0.251 µM in [21]; over 10 µM on D(1A) dopamine receptor [22].
Regarding `Cn1ccc2cc(NC(=O)Nc3cccnc3)ccc21` [SB 200646], the Ki in assay [12] is over 10 µM; in [23] it was over 10 µM; at D(2) dopamine receptor [5] it was over 10 µM; in [24], over 10 µM; in assay [25], 0.126 µM; in assay [26] it was 0.1 µM. Moreover, the Ki in assay [6] was 6.31 µM and 5.01 µM; in assay [27] it was over 10 µM; in assay [8], 0.0316 µM and 0.0631 µM; in assay [28] it was over 10 µM; in assay [29], over 10 µM; in [30] it was over 10 µM. The inhibitory constant (Ki) (on D(1A) dopamine receptor [22]; in assay [11]) was over 10 µM in each case.
